Here are results for three substances from PMC4861277, “The KISS1 Receptor as an In Vivo Microenvironment Imaging Biomarker of Multiple Myeloma Bone Disease” (PLoS ONE, 2016).

For data set [1] the following is noted: mouse, in vivo, iv.
Procedure: BLI was performed with an IVIS Spectrum (Caliper-Xenogen, Alameda, CA, USA) as previously described [32]. Briefly, mice were anesthetized i.p. with a mixture of ketamine (100 mg/kg) and xylazine (10 mg/kg) in PBS. Luciferin (150 mg/kg) was co-injected and BLI measurements were started 10 min later. For MCF-7 mice, animals were imaged every minute following injection of 100 μl of Alexa 633-kisspeptin (40 μM) using the NightOwl. For MM-containing mice, a fluorescence pre-scan (excitation filter: 605 nm, emission filter: 660 nm; illumination time: 1 s) was performed using the IVIS Spectrum. Next, mice were injected with 100 μl of Alexa 633-kisspeptin (40 μM) in the lateral tail vein and immediately imaged every two minutes for up to 20 min using the fluorescence settings as described above. In addition, fluorescent images were acquired after 30, 45, and 60 min. At the end of the experiment mice were then euthanized, organs were prepared, and fluorescence ex vivo imaging of the organs was performed. Imaging data was analyzed with Living Image 4.0 (Caliper-Xenogen, Alameda, CA, USA) and Prism 5 software (GraphPad, La Jolla, CA, USA).
All statistical analyses were conducted using Prism 5 software. Comparison between groups was made using either a paired or unpaired two-sample t-tests. Comparison of organ fluorescence was conducted using a 1-way ANOVA and Turkey’s multiple comparison test. Alexa 633-kisspeptin binding kinetics were quantified using association then dissociation curves with time0 = 25 min and NS = 1. P values of <0.05 were considered to be statistically significant.
Data set [2] relates to primary MSCs (KISS1R). Put plainly: Fluorescence microscopy of probe binding to primary MSCs (alone, conditioned media, direct co-culture with MM cells). It counts as cell-based, human. As to conditions: for binding to primary MSCs under normal culture conditions: MSCs alone, room temperature, fluorescence microscopy (Cy5 filter), Fig 4A; for binding to primary MSCs under normal culture conditions / binding to MSCs and MM cells after direct co-culture: 30 min incubation, 40 μmol/l; for binding to MSCs and MM cells after direct co-culture: MSCs directly co-cultured 24 h with INA-6 or MOPC cells. The method, then: (§1) MSCs were seeded in a Nunc^TM Lab-Tek^TM II 4-well chamber slide (6.7x10^3 cells/well) (Thermo Fischer Scientific GmbH, Erlangen, Germany) and allowed to attach overnight. Afterwards, the medium was replaced by 500 μl mixed media, 1:1 (v/v), followed by 24 h incubation. The day after, 500 μl mixed media, 1:1 (v/v) containing 1x10^4 INA-6 cells or 1.5x10^5 MOPC cells, 500 μl MM cell-derived supernatant (conditioned media) or 500 μl mixed media, 1:1 (v/v) (control) was added per well. For preparation of the conditioned media, INA-6 cells (2x10^5 cells/ml) or MOPC cells (3.75x10^4 cells/ml) were cultured for one day in mixed media, 1:1 (v/v), followed by centrifugation (270 g, 5 min) and filtration of the supernatant (filter pore size: 0.45 μm). After 24 h, cells were incubated for 30 min with either free dye or the Alexa 633-kisspeptin (40 μmol/l) at room temperature. After rinsing three times with PBS, cells were fixed in 4% paraformaldehyde and mounted with Vectashield mounting media for fluorescence containing 4',6-diamidino-2-phenylindole (Vector Laboratories, Inc., purchased from Linaris, Dossenheim, Germany). Images were acquired using a BZ-9000 fluorescence microscope (Cy5 filter) and the softwares BZ-II Viewer and BZ-II Analyzer 2.1 (all from Keyence, Neu-Isenburg, Germany).

The test system of data set [3] is MCF-7 tumor-burdened tibiae. Briefly: In vivo fluorescence imaging of mice intratibially injected with MCF-7 cells. To be noted: CD-1 nude mice, intratibial MCF-7, 100 μl of 40 μM probe, NightOwl imaging for 20 min, plateau values, n = 3, p<0.05 (S2E Fig). The protocol:
(§2) In vivo binding of Alexa 633-kisspeptin was tested in immune competent BALB/c and CD-1 nude mice, inoculated with MOPC cells and MCF-7 cells, respectively. All experiments were performed according to the German regulations for animal experimentation. The study was approved by the Regierung von Unterfranken as the responsible authority (Permit Number 55.2–2531.01-76/10 and -103/11) and by the institutional authorities of the Ethics Committee for Animal Experiments at the Christian Albrechts University of Kiel (V242-7224.121–17). 1x10^6 MCF-7 cells transfected with the near-infrared fluorescent protein [31] were suspended in 5 μl PBS and injected directly into the right tibia, with equal amounts of PBS injected into contralateral control limbs, of 3 female CD-1 nude mice (Charles River). Tumor progression was monitored using the NightOwl planar imaging system (Berthold Technologies, Bad Wildbad, Germany). […]
(§3) Supplementary file pone.0155087.s002.tif: S2 Fig Alexa 633-kisspeptin binds to the KISS1R-expressing cell line MCF-7 in vitro and in vivo. Cultured MCF-7 cells were incubated with either free dye or dye conjugated to the modified kisspeptin and imaged with fluorescence microscopy (A). […] Tibia fluorescence was quantified over time (D) and plateau fluorescent values determined (E). […]

Data set [4] relates to MOPC315.BM2-LucGFP MM bone lesions. Put plainly: In vivo time-lapse fluorescence imaging of MM bone lesions (MOPC model). To be noted: BALB/c mice with MOPC lesions in one hind leg, 100 μl of 40 μM probe i.v., imaged for 1 h, relative to pre-scan, n = 6, p<0.01 (Fig 5E). The method, then:
as §2, with “Germany). 1x10^5 MOPC cells, suspended in 100 μl PBS, were injected i.v. via the lateral tail vein into immune-competent female BALB/c mice (Charles River). 19 days after the injection of the MM cells, mice were imaged by in vivo bioluminescence (BLI) to identify 6 mice which contain lesions in only one of the hind legs. All animals were kept in temperature and humidity-controlled, pathogen-free environment, with a 12 h light/dark cycle, and access to food and water ad libitum.” for “Germany).”

The test system of data set [5] is KISS1R-expressing cell line MCF-7. Briefly: Fluorescence microscopy of probe binding to cultured MCF-7 cells. Format: cell-based, human. To be noted: S2A Fig. The protocol: as §1, with “For preparation of the conditioned media, INA-6 cells (2x10^5 cells/ml) or MOPC cells (3.75x10^4 cells/ml) were cultured for one day in mixed media, 1:1 (v/v), followed by centrifugation (270 g, 5 min) and filtration of the supernatant (filter pore size: 0.45 μm). After 24 h, cells were incubated for 30 min with either free dye or the Alexa 633-kisspeptin (40 μmol/l) at room temperature.” left out
as §3

Data set [6] has as its system matrix metalloproteinase 2. To be noted: cited from earlier work. The source says: The data presented herein support KISS1R as a novel and promising new biomarker for myeloma bone disease, but still several questions remain. Firstly, while we have described the up-regulation of the KISS1R cells directly interacting with MM cells, little is known so far about the role of kisspeptin and the KISS1R in MM disease progression. It will be of great importance to understand the role of kisspeptin and the KISS1R in both bone marrow cells and MM, and to be aware of what potential side effects, either positive or negative, may be associated with targeting or activation of this system. ...

For data set [7] the following is noted: compared with 10, 13 and 14 amino acid isoforms; cited from earlier work.

Ends that are not written are not given here.

Turning to “Alexa 633-kisspeptin: 54 amino acid kisspeptin with an N-terminal cysteine residue, labeled with Alexa Fluor 633 C5 Maleimide (C(Alexa Fluor 633 C5 maleimide)GTSLSPPPESSGSPQQPGLSAPHSRQIPAPQGAVLVQREKDLPNYNWNSFGLRF; ends and bridges not checked)”, in data set [1], the “organ uptake: kidney fluorescence” value is reported as “significantly high levels of fluorescence”, the “organ uptake: liver fluorescence” value was “significantly high levels of fluorescence” and the “organ uptake: ovaries” value is “a notable amount of probe was also detected”. In addition, the “binding to MSCs cultured in MM cell conditioned media” value in data set [2] (MSCs 24 h in INA-6 or MOPC conditioned media, 30 min with 40 μmol/l probe, Fig 4B) is listed as “low level probe binding”. Further, the “binding to primary MSCs under normal culture conditions” value in data set [2] is on record as “low level, heterogeneous binding”. Besides, the “binding to MSCs and MM cells after direct co-culture” value in data set [2] (Fig 4B) is recorded as “at high levels”. Also, the “fluorescence signal in tumor-burdened tibiae relative to contralateral controls” value in data set [3] is “significantly elevated signals”. Further, the “peak fluorescence in tumor-burdened limbs compared to contralateral sites” value in data set [4] is recorded as “Significantly greater peak fluorescence levels”. In addition, the “binding to MCF-7 cells in vitro” value in data set [5] was “bound”.
On to “Alexa Fluor 633 C5 Maleimide [free dye, reference compound]”, for which the “binding to primary MSCs under normal culture conditions” value in data set [2] is reported as “no notable fluorescence”. The “binding to MSCs and MM cells after direct co-culture” value in data set [2] (Fig 4B) is on record as “failed to show any specific binding”.
With kisspeptin, in data set [6], the “cleavage by matrix metalloproteinase 2” value is “cleaved and inactivated”. Further, the “stability of the 54 amino acid form relative to the shorter isoforms” value in data set [7] was “higher stability”.
